The values below come from ChEMBL document CHEMBL1201862, “PubChem BioAssay data set” (2004).

The target in assay [1] is T1, Neuropeptide Y receptor type 1 (Homo sapiens, UniProt P25929).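 Note: HEK293 cells with a CNG channel challenged with NPY then isoproterenol; potency as antagonist that reverses NPY suppression of cAMP signal.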
T1 sequence (P25929 whole entry): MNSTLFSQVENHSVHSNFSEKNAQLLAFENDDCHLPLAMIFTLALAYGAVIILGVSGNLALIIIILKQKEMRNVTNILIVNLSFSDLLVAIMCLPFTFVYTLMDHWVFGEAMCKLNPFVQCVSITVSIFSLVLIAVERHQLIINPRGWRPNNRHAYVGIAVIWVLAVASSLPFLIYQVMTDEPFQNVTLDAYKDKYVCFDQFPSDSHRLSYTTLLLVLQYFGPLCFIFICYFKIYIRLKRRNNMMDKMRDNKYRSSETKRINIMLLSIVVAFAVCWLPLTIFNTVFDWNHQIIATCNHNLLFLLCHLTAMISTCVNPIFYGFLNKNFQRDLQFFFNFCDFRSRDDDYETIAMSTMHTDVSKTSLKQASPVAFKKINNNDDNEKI
The assay is classed as functional.

The target of assay [2] is T2, Neuropeptide Y receptor type 2 (Homo sapiens, UniProt P49146).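 Note: HEK293 cells expressing the receptor and a CNG channel; stimulus was NPY near EC95 followed by isoproterenol to raise cAMP; antagonist potency measured as restoring cAMP signal that NPY suppresses.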
T2 sequence (P49146 whole entry): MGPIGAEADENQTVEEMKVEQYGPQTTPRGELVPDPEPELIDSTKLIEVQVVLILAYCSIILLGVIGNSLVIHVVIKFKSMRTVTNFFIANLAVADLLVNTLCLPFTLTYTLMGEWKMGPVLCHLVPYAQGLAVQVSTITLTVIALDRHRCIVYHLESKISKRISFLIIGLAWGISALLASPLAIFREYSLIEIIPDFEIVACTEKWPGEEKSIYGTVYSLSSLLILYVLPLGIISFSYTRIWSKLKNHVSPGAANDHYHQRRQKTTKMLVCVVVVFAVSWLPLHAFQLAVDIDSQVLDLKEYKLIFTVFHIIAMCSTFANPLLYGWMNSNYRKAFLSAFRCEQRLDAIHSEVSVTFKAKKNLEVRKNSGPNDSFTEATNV
It is filed as functional, cell-based.

The target in assay [3] is Cyclin-dependent kinase 5/CDK5 activator 1 (Homo sapiens, UniProt Q00535). The experiment in a line: blockade of human CDK5 activity – biochemical, cherry-picked samples, set 2, dose response (AID 504545).
Chain of Cyclin-dependent kinase 5/CDK5 activator 1 (Q00535 whole entry): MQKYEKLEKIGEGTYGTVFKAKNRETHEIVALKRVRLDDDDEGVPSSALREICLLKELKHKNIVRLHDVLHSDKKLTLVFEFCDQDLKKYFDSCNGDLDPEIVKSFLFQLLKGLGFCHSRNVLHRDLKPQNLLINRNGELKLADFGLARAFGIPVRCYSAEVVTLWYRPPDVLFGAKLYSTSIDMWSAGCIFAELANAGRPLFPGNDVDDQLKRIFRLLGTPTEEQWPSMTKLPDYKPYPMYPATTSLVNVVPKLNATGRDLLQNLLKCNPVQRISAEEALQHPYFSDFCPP
Chain of Cyclin-dependent kinase 5/CDK5 activator 1 (Q15078 whole entry, further chain): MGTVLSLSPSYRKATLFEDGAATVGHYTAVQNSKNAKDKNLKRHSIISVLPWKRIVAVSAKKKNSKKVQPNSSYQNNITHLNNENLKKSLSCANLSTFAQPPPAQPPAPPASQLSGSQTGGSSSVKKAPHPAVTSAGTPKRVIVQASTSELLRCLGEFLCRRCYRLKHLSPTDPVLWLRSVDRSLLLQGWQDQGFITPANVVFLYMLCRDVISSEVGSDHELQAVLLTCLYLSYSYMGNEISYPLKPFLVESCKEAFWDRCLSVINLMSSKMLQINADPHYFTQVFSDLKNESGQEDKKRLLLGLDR
In assay [4] the target is T3, RNA-binding protein pos-1 (Caenorhabditis elegans, UniProt G5EF15).
T3 sequence (G5EF15 whole entry): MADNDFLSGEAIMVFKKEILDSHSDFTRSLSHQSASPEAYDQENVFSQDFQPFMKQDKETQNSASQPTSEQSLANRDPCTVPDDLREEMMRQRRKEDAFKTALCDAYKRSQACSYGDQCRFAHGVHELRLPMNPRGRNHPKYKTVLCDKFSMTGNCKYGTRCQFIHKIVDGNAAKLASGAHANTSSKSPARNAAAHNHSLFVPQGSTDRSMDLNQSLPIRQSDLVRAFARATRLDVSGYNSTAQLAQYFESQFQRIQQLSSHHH
The experiment in a line: disruptors of C. elegans POS-1 RNA interaction – biochemical, fluorescence polarization, dose response (AID 1964).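 Note: purified POS-1 fused to maltose binding protein made in E. coli; potency of compounds blocking POS-1 binding to fluorescent RNA.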

For assay [5], the target named is T4, Zinc finger protein mex-5 (Caenorhabditis elegans, UniProt Q9XUB2).
T4 sequence (Q9XUB2 whole entry): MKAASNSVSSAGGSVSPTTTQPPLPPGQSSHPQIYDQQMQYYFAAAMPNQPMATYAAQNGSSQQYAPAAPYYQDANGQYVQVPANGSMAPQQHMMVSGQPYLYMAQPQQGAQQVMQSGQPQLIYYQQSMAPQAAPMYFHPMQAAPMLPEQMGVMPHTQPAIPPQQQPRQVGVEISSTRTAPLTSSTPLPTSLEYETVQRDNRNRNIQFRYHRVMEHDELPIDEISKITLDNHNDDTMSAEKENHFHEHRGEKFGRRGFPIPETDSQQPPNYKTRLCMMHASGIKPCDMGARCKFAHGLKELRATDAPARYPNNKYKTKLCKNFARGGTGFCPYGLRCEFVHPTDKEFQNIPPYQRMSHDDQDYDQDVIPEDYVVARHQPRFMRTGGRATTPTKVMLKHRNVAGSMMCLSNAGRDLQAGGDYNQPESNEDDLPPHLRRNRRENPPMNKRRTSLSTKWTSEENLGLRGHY
The assay is described as follows: potency of MEX-5 RNA-binding blockers – biochemical, C. elegans, fluorescence polarization, dose response (AID 1960). On the technique in general: Fluorescence polarisation rises when a labelled molecule tumbles more slowly, as on binding a larger partner.

Assay [6] addresses T5, Endoribonuclease toxin MazF (Escherichia coli K-12, UniProt P0AE70).
T5 sequence (P0AE70 whole entry): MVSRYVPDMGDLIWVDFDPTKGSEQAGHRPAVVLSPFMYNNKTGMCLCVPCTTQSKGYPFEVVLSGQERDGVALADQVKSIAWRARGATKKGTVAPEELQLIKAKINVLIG
The experiment in a line: activation of MazEF endoribonuclease cleavage – biochemical, fluorescence, single-stranded RNA substrate, uHTS hits, dose response (AID 588481). The assay is classed as functional.

Assay [7] has as its target T5, Endoribonuclease toxin MazF. The experiment in a line: substrate-only fluorescence increase artefacts – biochemical, single-stranded RNase substrate, counter-screen for MazEF activator project, dose response (AID 588502). It is filed as functional. Background: The purpose of a counterscreen is to sort out artefacts and off-target activity.
Assay [8] has as its target T6, Microphthalmia-associated transcription factor (Homo sapiens, UniProt O75030).
T6 sequence (O75030 whole entry): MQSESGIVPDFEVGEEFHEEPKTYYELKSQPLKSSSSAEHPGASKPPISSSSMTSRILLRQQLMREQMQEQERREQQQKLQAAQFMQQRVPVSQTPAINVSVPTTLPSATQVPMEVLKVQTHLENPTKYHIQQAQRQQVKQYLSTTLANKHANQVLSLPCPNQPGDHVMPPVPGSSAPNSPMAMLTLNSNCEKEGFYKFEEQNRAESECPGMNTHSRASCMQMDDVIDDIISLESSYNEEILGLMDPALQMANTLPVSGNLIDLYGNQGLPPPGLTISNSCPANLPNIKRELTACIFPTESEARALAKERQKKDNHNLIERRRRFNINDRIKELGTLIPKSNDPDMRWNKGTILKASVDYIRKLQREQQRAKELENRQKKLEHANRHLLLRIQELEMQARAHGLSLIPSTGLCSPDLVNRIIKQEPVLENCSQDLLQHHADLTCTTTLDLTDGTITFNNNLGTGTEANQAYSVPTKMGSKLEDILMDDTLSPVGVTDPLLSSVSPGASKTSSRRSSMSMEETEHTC
The experiment in a line: reducers of TRPM1 reporter luminescence, concentration series – cell-based, SK-MEL-5, cherry-picked, set 3, MITF inhibitor project, dose response (AID 493073).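 Note: SK-MEL-5 melanoma cells with luciferase driven by the MITF target TRPM1 promoter.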 The assay is classed as functional.

For assay [9], the target named is Luciferin 4-monooxygenase (Photinus pyralis, UniProt P08659). The assay is described as follows: inhibition of purified Photinus pyralis luciferase – biochemical, luminescence, dose response (AID 1891).
Chain of Luciferin 4-monooxygenase (P08659 whole entry): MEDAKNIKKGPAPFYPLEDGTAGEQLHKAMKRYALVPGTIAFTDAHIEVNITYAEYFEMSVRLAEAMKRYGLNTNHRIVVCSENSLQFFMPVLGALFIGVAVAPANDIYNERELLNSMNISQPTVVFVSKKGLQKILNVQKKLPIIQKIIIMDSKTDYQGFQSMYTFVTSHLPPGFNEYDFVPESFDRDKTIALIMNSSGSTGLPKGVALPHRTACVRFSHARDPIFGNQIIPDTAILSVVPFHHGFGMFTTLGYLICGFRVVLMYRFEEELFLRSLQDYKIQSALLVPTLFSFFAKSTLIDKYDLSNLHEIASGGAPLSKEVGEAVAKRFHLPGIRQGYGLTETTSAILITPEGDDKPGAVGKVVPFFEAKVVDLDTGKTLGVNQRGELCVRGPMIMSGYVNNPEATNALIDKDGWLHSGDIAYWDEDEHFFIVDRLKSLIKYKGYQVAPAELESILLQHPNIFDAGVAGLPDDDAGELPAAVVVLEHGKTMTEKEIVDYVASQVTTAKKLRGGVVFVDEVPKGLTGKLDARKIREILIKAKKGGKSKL
The next assay deals with Paired box protein Pax-8 (Homo sapiens, UniProt Q06710). The assay is described as follows: PAX8 transcriptional activity inhibition in RMG-I – RMG-I cells, luciferase, cherry-pick, dose response (AID 687027).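 Note: luciferase reporter driven by Pax8 target thyroperoxidase promoter measured by SteadyGlo luminescence.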 It is filed as functional, cell-based.
Chain of Paired box protein Pax-8 (Q06710 whole entry): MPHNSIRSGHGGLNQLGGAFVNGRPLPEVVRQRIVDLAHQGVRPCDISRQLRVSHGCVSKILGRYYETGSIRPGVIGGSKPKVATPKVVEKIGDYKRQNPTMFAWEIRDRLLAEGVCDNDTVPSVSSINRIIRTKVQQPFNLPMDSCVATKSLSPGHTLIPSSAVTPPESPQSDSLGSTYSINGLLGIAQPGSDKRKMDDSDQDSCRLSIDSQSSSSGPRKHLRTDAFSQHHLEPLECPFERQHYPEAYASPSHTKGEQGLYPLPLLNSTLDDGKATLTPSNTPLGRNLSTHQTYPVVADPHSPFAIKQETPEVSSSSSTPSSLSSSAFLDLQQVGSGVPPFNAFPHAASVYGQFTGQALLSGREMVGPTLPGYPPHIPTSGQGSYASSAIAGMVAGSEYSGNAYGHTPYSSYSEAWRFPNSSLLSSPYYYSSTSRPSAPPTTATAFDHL
Assay [10] in a line: HEK-293T viability loss after treatment – luminescence, T-cell screen hits, cytotoxicity control for TCR NF-kB inhibitor project, dose response (AID 489026).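 Note: cells exposed to compound about 14 hours before the viability readout.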 It is filed as functional, cell-based.
For a further assay, the target named is T7, CAAX prenyl protease 2 (Saccharomyces cerevisiae S288c, UniProt Q03530).
T7 sequence (Q03530 whole entry): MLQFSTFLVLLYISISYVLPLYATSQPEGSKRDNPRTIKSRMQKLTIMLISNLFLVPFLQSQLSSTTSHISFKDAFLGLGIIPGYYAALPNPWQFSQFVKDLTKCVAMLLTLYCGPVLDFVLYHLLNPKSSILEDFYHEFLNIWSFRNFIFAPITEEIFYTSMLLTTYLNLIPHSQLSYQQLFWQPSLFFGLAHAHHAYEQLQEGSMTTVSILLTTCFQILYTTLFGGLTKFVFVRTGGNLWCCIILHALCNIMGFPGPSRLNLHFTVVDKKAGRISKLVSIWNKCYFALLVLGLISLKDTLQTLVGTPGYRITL
It is filed as biochemical.

The target of another assay is T8, Coagulation factor XII (Homo sapiens, UniProt P00748).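 Note: activated factor XIIa alpha cleaving a fluorogenic AMC peptide substrate; inhibitor potency from loss of enzyme activity.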
T8 sequence (P00748 whole entry): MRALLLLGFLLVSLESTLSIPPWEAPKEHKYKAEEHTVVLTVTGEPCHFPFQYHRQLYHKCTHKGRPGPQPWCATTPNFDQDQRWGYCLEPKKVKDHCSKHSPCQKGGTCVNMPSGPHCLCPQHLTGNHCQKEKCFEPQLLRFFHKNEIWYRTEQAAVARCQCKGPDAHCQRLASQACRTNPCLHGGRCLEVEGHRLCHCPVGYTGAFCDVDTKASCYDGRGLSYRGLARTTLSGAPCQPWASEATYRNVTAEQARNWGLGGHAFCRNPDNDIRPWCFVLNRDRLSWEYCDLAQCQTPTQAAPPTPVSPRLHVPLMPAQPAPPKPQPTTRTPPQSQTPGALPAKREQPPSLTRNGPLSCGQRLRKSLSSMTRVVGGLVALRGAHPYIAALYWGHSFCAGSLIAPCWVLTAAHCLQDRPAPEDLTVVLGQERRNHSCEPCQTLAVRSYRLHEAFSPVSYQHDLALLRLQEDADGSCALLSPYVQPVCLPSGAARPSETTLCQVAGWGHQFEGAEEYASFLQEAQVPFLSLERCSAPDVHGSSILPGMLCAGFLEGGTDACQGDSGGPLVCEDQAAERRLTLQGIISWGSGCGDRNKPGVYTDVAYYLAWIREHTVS
The assay is classed as functional.

The nature of assay [11]: microbe, parasite or virus in culture. The assay is classed as functional. The settings on record: Mycobacterium tuberculosis.

The source made the active and inactive calls.

A word on the IC50: it is the concentration that gives 50% inhibition. With `CC(C)OC(=O)/C(=C/c1ccc2c(c1)c1ccccc1n2C)NC(=O)c1ccccc1`, the IC50 in assay [1] is 19.1 µM (not active); in assay [2], 14.7 µM (not active).

One may read the AC50 as the midpoint of the concentration-response curve, whichever way the signal moves. Consider `CN1CCN(C(=O)c2ccc3c(c2)NC(=O)/C(=C/c2ccccc2)S3)CC1`, for which the AC50 in [3] is 29.7 µM (active).

As a reminder, the EC50 is the concentration needed to bring the measured effect to its halfway point. `COc1ccc(N/C=C\C(=O)c2ccc(C)cc2)cc1OC`: the half-maximal effective concentration (EC50) in assay [4] is > 300 µM (not active); in assay [5] it was > 300 µM (not active); in assay [6], > 99 µM (inactive); in assay [7], 25 µM (inactive).

In the case of `Cc1cccc(-n2ccnc2SCC(=O)N2CCCc3ccccc32)c1C`, the concentration for half-maximal inhibition (IC50) was 4.08 µM (active) in [1] and 1.56 µM (active) in [2].

`CCOC(=O)Cn1/c(=N/C(=O)c2ccc([N+](=O)[O-])s2)sc2ccccc21`: the concentration at half-maximal activity (AC50) in [8] was 3.5 µM (active). Also, the EC50 in assay [6] and in [7] was > 99 µM (inactive) in each case.

On to `COc1ccc(C(=O)ON=C(N)c2ccccn2)cc1`, for which, in assay [9], the concentration giving a half-maximal response (EC50) is 1.47 µM (active). Besides, the figures for the AC50 (in assay [3]; on Paired box protein Pax-8) were 12.6 µM (active) and 8.88 µM (active), respectively.

As for `COc1cc(-c2noc(C)c2C#Cc2ccsc2)cc(OC)c1OC`, the IC50 in assay [10] was > 80 µM (inactive).

For the compound `CCOC(=O)c1cc2c(O)nccc2nc1C`, the AC50 on CAAX prenyl protease 2 was 10.3 µM (active).

Take `COc1cc2c(cc1O)CC[C@@H]1[C@@H]2CC[C@]2(C)[C@@H](O)CC[C@@H]12` [2-METHOXYESTRADIOL]: the IC50 in assay [10] was > 80 µM (inactive).

For `CN(C(=O)Oc1cccc2cccnc12)c1ccccc1`, the IC50 at Coagulation factor XII is > 50 µM (inactive).

In the case of `Cc1ccc(C(=O)Nc2cccc(C(=O)N/N=C/c3ccc(F)cc3)c2)cc1`, the EC50 is 41.1 µM (inactive) in assay [6] and > 99 µM (inactive) in assay [7].

For the compound `O=C(CCc1nc(-c2ccccc2)c(-c2ccccc2)o1)OCc1ccc(Br)cc1`, the values for the half-maximal inhibitory concentration (IC50) in [1] and in assay [2] were 8.36 µM (active) and 15.1 µM (not active), respectively.

Turning to `Cc1nn(-c2ncccn2)c2c1C(=O)CC(C)(C)C2Br` (centres undefined), the AC50 in assay [3] is 69.7 µM (active).

For `CC(C)OC(=O)/C(C#N)=C/c1ccc(-c2ccc(SC(F)F)cc2)o1`, the CC50 in assay [11] is > 40 µM (active). Further, the EC50 in assay [6] was > 99 µM (inactive); in assay [7], 11.9 µM (active).

Take `Oc1ccc(-c2nc3ccccn3c2NCc2ccc3c(c2)OCO3)cc1`: the AC50 on CAAX prenyl protease 2 is 27.7 µM (active).

In the case of `O=C(NCCN1C(=O)C2C3C=CC(C3)C2C1=O)Nc1ccccc1` (centres undefined), the IC50 at Coagulation factor XII is > 50 µM (inactive).
